Values after ≈ are worked out from the molar mass of the structure shown.
Experiments:
S. pyogenes PolC = S. pyogenes PolC (Streptococcus pyogenes, UniProt Q8NZB5); test: Inhibition of PolC primer extension activity (scintillation proximity assay); format: biochemical; settings: serial 2-fold dilutions, XLfit
Experimental: The polC gene from Streptococcus pyogenes was overexpressed and PolC was purified as described in PCT/JUS05/15548. Primer extension activity of PolC was measured using 1 μM oligonucleotide primer-template (primer strand 5′-ACCAGTGAGACGGGCAACA (SEQ ID NO: 1), template strand 5′-[…] SEQ ID NO: 2)). Reactions contained 10 mM magnesium acetate, 50 mM Tricine/Tris pH 7.8, 2.4% (w/v) polyethylene glycol (˜8000 MW), 0.024% pluronic F68, 1 mM dithiothreitol, 20 μM dATP, 20 μM dCTP, 0.5 μM dGTP, 0.72 μM dTTP, 0.28 μM 3H-dTTP (0.005 μCi/μL), 8% DMSO and 15 nM PolC. Reactions (25 μL) were incubated for 10 minutes at room temperature and stopped by addition of an equal volume of 100 mM EDTA. Incorporation of radiolabelled dTTP was measured by scintillation proximity assay by addition of 100 μL of 1 mg/mL PEI-PVT beads in 300 mM citrate pH 3.0.
Compounds of formula (I) were tested for inhibition of S. pyogenes PolC activity. Serial 2-fold dilutions of compounds were tested for inhibition of PolC activity and IC50's were determined (XLfit). […] These compounds were specific for prokaryotic DNA polymerase, showing little or no inhibition of eukaryotic S. cerevisiae polymerase delta at concentrations up to 160 μM.

[1] = tested on: S. aureus, S. pneumoniae, S. pyogenes, and E. faecalis; test: Broth microdilution MIC (CLSI), major Gram-positive organisms; format: cell-based; settings: against some strains of S. aureus
Experimental: (§1) Compounds of the present invention were tested for antibacterial activity against a variety of pathogenic organisms including S. aureus, S. pneumoniae, S. pyogenes, E. faecalis, H. influenza and M. catarrhalis using a standard broth microdilution method to determine their minimum inhibitory concentrations (MICs). All compounds were tested using standard methods in accordance with CLSI guidelines (Clinical and Laboratory Standards Institute). […] Compounds of the present invention were not compromised by existing resistance to all drug classes tested, including β-lactams, glycopeptides, oxazolidinones, macrolides, and fluoroquinolones. In particular, the compound described in Example 31 was active against methicillin-(oxacillin-) resistant S. aureus (MRSA), vancomycin-intermediate S. aureus (VISA), linezolid-resistant S. aureus, methicillin-(oxacillin-) resistant S. epidermidis, macrolide-resistant S. pyogenes, macrolide-, penicillin-, and levofloxacin-resistant S. pneumoniae, and vancomycin-resistant E. faecalis (VRE).

S. epidermidis = test: Time kill kinetic studies; format: cell-based
S. pneumoniae = test: Time kill kinetic studies; format: cell-based
[2] = tested on: MRSA, vancomycin-resistant E. faecalis (VRE), vancomycin-resistant E. faecium and macrolide-resistant S. pyogenes; test: MIC90 against resistant Gram-positive bacteria; format: cell-based, S. aureus
Experimental: as §1

E. faecium = test: Time kill kinetic studies; format: cell-based
E. faecalis = test: Time kill kinetic studies; format: cell-based
S. aureus = test: Time kill kinetic studies; format: cell-based
S. pyogenes = test: Time kill kinetic studies; format: cell-based
[3] = tested on: vancomycin-resistant E. faecalis (VRE); test: Antibacterial activity against resistant strains (MIC); format: cell-based
Experimental: as §1

[4] = tested on: vancomycin-, macrolide-, and ciprofloxacin-resistant E. faecium; test: as above; format: cell-based
Experimental: as §1

[5] = tested on: methicillin-(oxacillin-) resistant S. aureus (MRSA); test: as above; format: cell-based
Experimental: as §1

[6] = tested on: macrolide-, penicillin-, and levofloxacin-resistant S. pneumoniae; test: as above; format: cell-based
Experimental: as §1

[7] = tested on: macrolide-resistant S. pyogenes; test: as above; format: cell-based
Experimental: as §1

[8] = tested on: methicillin-(oxacillin-) resistant S. epidermidis; test: as above; format: cell-based
Experimental: as §1

[9] = tested on: vancomycin-intermediate S. aureus (VISA); test: as above; format: cell-based
Experimental: as §1

[10] = tested on: linezolid-resistant S. aureus; test: as above; format: cell-based
Experimental: as §1

[11] = tested on: clinically relevant resistant strains; test: MICs in clinically relevant resistant strains (all listed strains together); format: cell-based; settings: for MIC: range over the resistant strains listed
Experimental: as §1

S. pyogenes PolC, sequence (Q8NZB5 whole entry): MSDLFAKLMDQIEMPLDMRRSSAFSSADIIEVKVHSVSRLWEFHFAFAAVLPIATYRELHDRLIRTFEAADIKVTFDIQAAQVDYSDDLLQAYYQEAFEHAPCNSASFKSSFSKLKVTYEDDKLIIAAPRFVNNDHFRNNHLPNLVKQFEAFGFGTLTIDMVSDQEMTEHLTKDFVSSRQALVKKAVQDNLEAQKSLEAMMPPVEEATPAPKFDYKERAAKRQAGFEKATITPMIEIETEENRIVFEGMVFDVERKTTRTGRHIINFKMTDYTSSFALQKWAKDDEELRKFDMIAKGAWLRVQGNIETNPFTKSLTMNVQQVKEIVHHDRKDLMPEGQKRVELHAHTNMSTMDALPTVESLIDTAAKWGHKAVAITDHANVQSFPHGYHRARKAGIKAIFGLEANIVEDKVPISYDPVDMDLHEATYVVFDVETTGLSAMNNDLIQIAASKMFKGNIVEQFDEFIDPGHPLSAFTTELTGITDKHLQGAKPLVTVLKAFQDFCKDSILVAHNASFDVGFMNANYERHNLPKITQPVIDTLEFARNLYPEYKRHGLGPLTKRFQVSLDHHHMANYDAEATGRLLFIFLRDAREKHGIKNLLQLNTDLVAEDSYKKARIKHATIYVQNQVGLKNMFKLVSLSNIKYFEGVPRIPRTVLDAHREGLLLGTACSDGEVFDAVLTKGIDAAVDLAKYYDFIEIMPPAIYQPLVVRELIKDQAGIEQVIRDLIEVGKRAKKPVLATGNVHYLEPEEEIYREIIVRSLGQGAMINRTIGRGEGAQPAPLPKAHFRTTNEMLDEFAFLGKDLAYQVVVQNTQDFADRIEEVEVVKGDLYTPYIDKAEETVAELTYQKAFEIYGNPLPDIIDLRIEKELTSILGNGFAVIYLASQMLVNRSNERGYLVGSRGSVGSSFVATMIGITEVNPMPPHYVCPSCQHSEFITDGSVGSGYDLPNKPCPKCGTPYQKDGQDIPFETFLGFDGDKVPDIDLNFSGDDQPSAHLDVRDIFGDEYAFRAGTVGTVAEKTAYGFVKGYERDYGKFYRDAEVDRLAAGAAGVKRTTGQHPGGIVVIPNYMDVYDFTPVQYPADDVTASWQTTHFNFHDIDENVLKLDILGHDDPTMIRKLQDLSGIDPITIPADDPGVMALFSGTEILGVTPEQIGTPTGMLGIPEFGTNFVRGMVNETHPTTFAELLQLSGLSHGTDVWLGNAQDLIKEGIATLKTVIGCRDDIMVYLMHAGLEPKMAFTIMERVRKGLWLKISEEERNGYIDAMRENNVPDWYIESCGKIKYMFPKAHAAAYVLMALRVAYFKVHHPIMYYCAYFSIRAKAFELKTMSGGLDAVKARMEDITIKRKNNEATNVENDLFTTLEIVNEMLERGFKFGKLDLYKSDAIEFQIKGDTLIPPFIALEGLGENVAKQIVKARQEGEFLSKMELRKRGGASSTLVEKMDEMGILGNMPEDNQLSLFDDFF

Question: For COCc1csc(NC(=O)NCc2ccc(Cl)c(Cl)c2)n1 [Example 19, 1-(3,4-Dichlorobenzyl)-3-(4-(methoxymethyl)thiazol-2-yl)urea], which IC50 (S. pyogenes PolC) is on record?
Answer: 0.11 to 25 µM

Question: CCCCOCc1csc(NC(=O)NCc2ccc(Cl)c(Cl)c2)n1 [Example 21, 1-(3,4-Dichlorobenzyl)-3-(4-(butoxymethyl)thiazol-2-yl)urea] was tested. Which MIC [1] did it give?
Answer: 0.12 to 4 µg/mL (≈ 0.309 to 10.3 µM)

Question: Which “time kill kinetics result” value (S. epidermidis) does the source give for CS(=O)(=O)CCOCc1csc(NC(=O)NCc2ccc(Cl)c(Cl)c2)n1 [Example 28, 1-(3,4-Dichlorobenzyl)-3-(4-((2-(methylsulfonyl)ethoxy)methyl)thiazol-2-yl)urea] here?
Answer: bactericidal

Question: What about the “time kill kinetics result” value (S. pneumoniae) of the same compound?
Answer: bactericidal

Question: And the MIC90 [2]?
Answer: 1 to 8 µg/mL (≈ 2.28 to 18.2 µM)

Question: And the “time kill kinetics result” value (E. faecium)?
Answer: bactericidal

Question: What about the “time kill kinetics result” value (E. faecalis) of the same compound?
Answer: bactericidal

Question: And the “time kill kinetics result” value (S. aureus)?
Answer: bactericidal

Question: And the “time kill kinetics result” value (S. pyogenes)?
Answer: bactericidal

Question: And the “activity against resistant strain” value ([3]; vancomycin-, macrolide-, and ciprofloxacin-resistant E. faecalis (VRE))?
Answer: active

Question: What about the “activity against resistant strain” value [4] of the same compound?
Answer: active

Question: What about the “activity against resistant strain” value [5] of the same compound?
Answer: active

Question: And the “activity against resistant strain” value [6]?
Answer: active

Question: And the “activity against resistant strain” value [7]?
Answer: active

Question: What about the “activity against resistant strain” value ([8]; methicillin-(oxacillin-) resistant and mupirocin resistant S. epidermidis) of the same compound?
Answer: active

Question: What about the “activity against resistant strain” value [9] of the same compound?
Answer: active

Question: And the “activity against resistant strain” value [10]?
Answer: active

Question: And the “MICs in sensitive versus drug resistant strains” value [11]?
Answer: comparable

Question: And the MIC [11]?
Answer: 0.5 to 4 µg/mL (≈ 1.14 to 9.12 µM)

Question: Which results are given for O=C(NCc1ccc(Cl)c(Cl)c1)Nc1nc(COCCO)cs1 [Example 31, 1-(3,4-Dichloro-benzyl)-3-[4-(2-hydroxy-ethoxymethyl)-thiazol-2-yl]-urea]?
Answer: time kill kinetics result (S. pneumoniae): bactericidal; time kill kinetics result (E. faecalis): bactericidal; time kill kinetics result (S. aureus): bactericidal; activity against resistant strain ([3]; vancomycin-resistant E. faecalis (VRE)): active; activity against resistant strain [5]: active; activity against resistant strain [6]: active; activity against resistant strain [7]: active; activity against resistant strain ([8]; methicillin-(oxacillin-) resistant S. epidermidis): active; activity against resistant strain [9]: active; activity against resistant strain [10]: active; MICs in sensitive versus drug resistant strains [11]: comparable; MIC [11]: 1 to 32 µg/mL (≈ 2.66 to 85 µM)

Question: Which results are given for O=C(NCc1ccc(Cl)c(Cl)c1)Nc1nc(CO)cs1 [Example 39, 1-(3,4-Dichlorobenzyl)-3-(4-(hydroxymethyl)thiazol-2-yl)urea]?
Answer: MIC [1]: 0.12 to 4 µg/mL (≈ 0.361 to 12 µM); IC50 (S. pyogenes PolC): 0.11 to 25 µM

Question: How did the MIC [1] turn out when COCCOCc1csc(NC(=O)NCc2ccc3c(c2)OCO3)n1 [Example 52, 1-Benzo[1,3]dioxol-5-ylmethyl-3-[4-(2-methoxy-ethoxymethyl)-thiazol-2-yl]-urea] was run?
Answer: 0.12 to 4 µg/mL (≈ 0.328 to 10.9 µM)

Question: Which IC50 (S. pyogenes PolC) does the source give for COCCOCc1csc(NC(=O)NCc2ccc(Br)cc2)n1 [Example 56, 1-(4-bromobenzyl)-3-(4-((2-methoxyethoxy)methyl)thiazol-2-yl)urea] here?
Answer: 0.11 to 25 µM

Question: CC(=O)Nc1ccc(SCc2csc(NC(=O)NCc3ccc(Cl)c(Cl)c3)n2)cc1 [Example 149, 1-(3,4-dichlorobenzyl)-3-(4-((4-acetamidophenylthio)methyl)thiazol-2-yl)urea] was tested. Which MIC [1] did it give?
Answer: 0.12 to 4 µg/mL (≈ 0.249 to 8.31 µM)

— US8716320B2, “Antibacteriall heterocyclic ureas” (Replidyne, Inc., priority 2006, dated 2014)
